Test [1] deals with T1, MAO-A (Rattus norvegicus, UniProt P21396).
T1 construct: suspension of 1 part by volume of the forebrains of male Wistar rats; from tissue; host or cells: forebrain of male Wistar rats, suspension in potassium phosphate buffer
T1 sequence (P21396 1-526): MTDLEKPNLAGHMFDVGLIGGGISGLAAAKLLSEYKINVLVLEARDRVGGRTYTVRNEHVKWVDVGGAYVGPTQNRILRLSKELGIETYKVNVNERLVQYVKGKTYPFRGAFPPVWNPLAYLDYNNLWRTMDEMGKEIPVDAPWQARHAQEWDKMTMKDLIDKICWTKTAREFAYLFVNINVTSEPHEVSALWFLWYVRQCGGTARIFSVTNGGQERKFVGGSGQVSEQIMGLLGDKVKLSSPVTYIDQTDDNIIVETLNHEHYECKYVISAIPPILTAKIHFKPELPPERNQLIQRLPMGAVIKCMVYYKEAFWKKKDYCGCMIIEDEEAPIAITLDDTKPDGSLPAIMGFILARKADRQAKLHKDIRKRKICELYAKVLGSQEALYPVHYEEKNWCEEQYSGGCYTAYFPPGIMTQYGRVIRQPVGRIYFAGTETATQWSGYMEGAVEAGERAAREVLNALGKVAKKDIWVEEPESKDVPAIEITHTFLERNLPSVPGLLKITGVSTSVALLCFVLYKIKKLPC
As to the kind of experiment: MAO-A inhibition activity with rat forebrain (14C-5-HT substrate). Type of test: biochemical, rat (male Wistar). Conditions: for inhibition at 0.1 µM: read-out: Inhibiting activity MAO-A (% at 10^-7 M); for IC50: 5-HT 200 μM, read-out: Inhibiting activity MAO-A, IC50. As to the method:
(§1) Determination of MAO inhibition activity with the use of rat forebrain:
(§2) The MAO inhibition activity was determined by a method of Prada et al. (J. Pharmacol. Exp. Ther., 248, 400-414 (1989)).
(§3) The enzyme reaction was conducted in 300 μl of a solution having the following composition:
(§4) ^14 C-labelled enzyme substrate
(§5) The enzyme source used was a suspension of 1 part by volume of the forebrains of male Wistar rats in 5 parts by volume of a 0.1M potassium phosphate buffer (pH 7.4). The enzyme source was mixed with the test compound and the mixture was prewarmed at 37° C. for 10 min. Then the enzyme substrate was added thereto to initiate the enzyme reaction. After 10 min, 200 μl of 2N hydrochloric acid was added to terminate the reaction.
(§6) As the substrates for MAO-A and MAO-B, 5-HT (serotonin) and PEA (β-phenethylamine) each labelled with ^14 C were used, respectively. The specific radioactivities of 5-HT and PEA were regulated to 11.1 MBq/mmol and 29.6 MBq/mmol, respectively, and the concentrations of them were 200 μM and 20 μM, respectively, in the reaction.
(§7) The test compound was dissolved in distilled water so that an intended concentration could be obtained in the enzyme reaction. When the test compound was insoluble in water, it was dissolved in dimethyl sulfoxide to obtain a 10% solution.
(§8) Diethyl ether and n-heptane were used as […], respectively. After the termination of the enzyme reaction, 3 ml of the solvent was added to the reaction mixture and shaken for 10 min. After centrifugation at 3,000 rpm for about 10 min, the lower aqueous layer was frozen in dry ice/acetone. The upper organic layer was recovered by decantation and the radioactivity thereof was determined with a liquid scintillation counter.
(§9) The inhibiting activities of the test compounds against MAO A and MAO B are given at the concentrations of 10^-7 M and 10^-6 M or by IC50 values.

Test [2] has as its target T2, MAO-B (Rattus norvegicus, UniProt P19643).
T2 construct: suspension of 1 part by volume of the forebrains of male Wistar rats; from tissue; host or cells: forebrain of male Wistar rats, suspension in potassium phosphate buffer
T2 sequence (P19643 1-520): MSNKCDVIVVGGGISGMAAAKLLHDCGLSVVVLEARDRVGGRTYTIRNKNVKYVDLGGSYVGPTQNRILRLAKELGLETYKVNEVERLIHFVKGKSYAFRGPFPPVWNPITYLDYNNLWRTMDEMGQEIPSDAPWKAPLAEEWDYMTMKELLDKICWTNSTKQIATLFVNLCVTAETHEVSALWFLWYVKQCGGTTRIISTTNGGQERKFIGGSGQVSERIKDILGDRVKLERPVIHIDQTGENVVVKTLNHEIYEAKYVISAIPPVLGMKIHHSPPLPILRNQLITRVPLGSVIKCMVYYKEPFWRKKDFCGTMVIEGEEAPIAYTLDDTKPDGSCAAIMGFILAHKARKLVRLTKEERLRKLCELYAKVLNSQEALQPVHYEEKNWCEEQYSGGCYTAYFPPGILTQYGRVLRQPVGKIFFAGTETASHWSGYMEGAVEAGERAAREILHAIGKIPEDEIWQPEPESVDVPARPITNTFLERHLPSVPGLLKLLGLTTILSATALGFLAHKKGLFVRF
Description: MAO-B inhibition activity with rat forebrain (14C-PEA substrate). Conditions: for inhibition at 1 µM: 10^-6 M, read-out: Inhibiting activity MAO-B (% at 10^-6 M); for IC50: PEA 20 μM, read-out: Inhibiting activity MAO-B, IC50. Format: biochemical, rat (male Wistar). As to the method:
as §1, §2, §3, §4, §5, §6, §7, §8, §9

Structures can show the parent of a compound that is named as a salt.

Take `COCC1CN(c2ccc3nc(COC(=O)c4ccccc4)sc3c2)C(=O)O1` (centres unmarked) [Example 1, 3-(2-Benzoyloxymethylbenzothiazol-6-yl)-5-methoxymethyl-2-oxazolidinone]: the inhibition at 0.1 µM in test [1] (10^-7 M) was 93%. Besides, the inhibition at 1 µM in test [2] stood at 15%.

For `COCC1CN(c2ccc3nc(CO)sc3c2)C(=O)O1` (centres unmarked) [Example 2, 3-(2-Hydroxymethylbenzothiazol-6-yl)-5-methoxymethyl-2-oxazolidinone], the inhibition at 0.1 µM in test [1] (10^-7 M) stood at 64%. Moreover, the inhibition at 1 µM in test [2] came to 11%.

Regarding `COCC1CN(c2ccc3nc(COCC#N)sc3c2)C(=O)O1` (centres unmarked) [Example 3], in test [1], the IC50 is 5 nM. In test [2], the inhibition at 1 µM turned out to be 11%.

On to `COCC1CN(c2ccc3nc(CNCC#N)sc3c2)C(=O)O1` (centres unmarked) [Example 4, 3-[(2-Cyanomethylaminomethylbenzothiazol)-6-yl]-5-methoxymethyl-2-oxazolidinone], for which the IC50 in test [1] was 39 nM. Further, the inhibition at 1 µM in test [2] was 13%.

Turning to `COCC1CN(c2ccc3nc(C4CCC(=O)O4)sc3c2)C(=O)O1` (centres unmarked) [Example 5, 3-[2-(5-Oxotetrahydrofuran-2-yl)benzothiazol-6-ul]-5methoxymethyl-2-oxazolidinone], the “Inhibiting activity MAO-A (% at 10^-7 M)” value in test [1] (10^-7 M) is listed as 78%. Also, the inhibition at 1 µM in test [2] was 11%.

Turning to `COC[C@H]1CN(c2ccc3nc(C4CCC(O)O4)sc3c2)C(=O)O1` (some centres unmarked) [Example 7], the inhibition at 0.1 µM in test [1] (10^-7 M) is 24%. Further, the inhibition at 1 µM in test [2] was 10%.

Regarding `COCC1CN(c2ccc3nc(C(O)CC=NO)sc3c2)C(=O)O1` (centres unmarked) [Example 8, 3-[2-(1-Hydroxy-3-hydroxyiminopropyl)benzothiazol-6-yl]-5-methoxymethyl-2-oxazolidinone], in test [1] (10^-7 M), the inhibition at 0.1 µM is 80%. Also, the inhibition at 1 µM in test [2] was found to be 13%.

As to `COC[C@H]1CN(c2ccc3nc([C@@H](O)CCC#N)sc3c2)C(=O)O1` [Example 9, 3-[2-(1(S)-Hydroxy-3-cyanopropyl)benzothiazol-6-yl]-5(R)-methoxymethyl-2-oxazolidinone], the inhibition at 0.1 µM in test [1] (10^-7 M) was found to be 87%. Moreover, in test [2], the inhibition at 1 µM worked out at 13%.

As for `COC[C@H]1CN(c2ccc3nc(N4CCC(C#N)CC4)sc3c2)C(=O)O1` [Example 13, (R)-3-[2-(4-Cyanopiperidino)benzothiazol-6-yl]-5-methoxymethy]-2-oxazolidinone hydrochloride], the IC50 stood at 290 nM in test [1] and 598000 nM in test [2].

As to `COCC1CN(c2ccc3nc(CCCC#N)sc3c2)C(=O)O1` (centres unmarked) [Example 14], the IC50 is 14 nM in test [1] and 579000 nM in test [2].

Turning to `COCC1CN(c2ccc3nc(CCC#N)sc3c2)C(=O)O1` (centres unmarked) [Example 15], the results for the IC50 in test [1] and in test [2] were 256 nM and 487000 nM, respectively.

Turning to `COC[C@H]1CN(c2ccc3nc(CCCC#N)sc3c2)C(=O)O1` [Example 16], in test [1] (10^-7 M), the inhibition at 0.1 µM is 71%. For the same compound, the inhibition at 1 µM in test [2] stood at 17%.

In the case of `COC[C@@H]1CN(c2ccc3nc(CCCC#N)sc3c2)C(=O)O1` [Example 17], the inhibition at 0.1 µM in test [1] (10^-7 M) worked out at 24%. Also, the inhibition at 1 µM in test [2] came to 9%.

In the case of `N#CCCCc1nc2ccc(N3C[C@H](CO)OC3=O)cc2s1` [Example 18], the IC50 in test [1] came out at 21 nM; in test [2], 930000 nM.

Take `N#CCCCc1nc2ccc(N3C[C@@H](CO)OC3=O)cc2s1` [Example 19]: in test [1] (10^-7 M), the inhibition at 0.1 µM was 61%. In test [2], the inhibition at 1 µM worked out at 16%.

Turning to `COCC1CN(c2ccc3nc(CCCCC#N)sc3c2)C(=O)O1` (centres unmarked) [Example 20], the inhibition at 0.1 µM in test [1] (10^-7 M) stood at 15%. The inhibition at 1 µM in test [2] was 14%.

On to `COCC1CN(c2ccc3nc(/C=C/CCC#N)sc3c2)C(=O)O1` (centres unmarked) [Example 21], for which the inhibition at 0.1 µM in test [1] (10^-7 M) worked out at 10%. In test [2], the inhibition at 1 µM came out at 8%.

Take `COC[C@@H]1CN(c2ccc3nc(CCCCC#N)sc3c2)C(=O)O1` [Example 22]: the inhibition at 0.1 µM in test [1] (10^-7 M) amounted to 75%. Also, in test [2], the inhibition at 1 µM was found to be 7%.

For the compound `COC[C@H]1CN(c2ccc3nc(CCCCC#N)sc3c2)C(=O)O1` [Example 23], the values for the IC50 in test [1] and in test [2] were 28 nM and > 100000 nM, respectively.

Source of the values: US5475014A, “Oxazolidone derivative” (Eisai Co., Ltd., priority 1991, dated 1995).
